Entries after “also recorded” stand apart in the source; their conditions may differ.
Assays:
A375 melanoma cells [1] = assay: A375 melanoma xenograft in nude mice, tumor volume; type: in vivo, mouse; settings: for tumor formation (tumor volume) of shRNA-treated cells xenotransplanted into mice: A375 cells treated with shRNA before transplantation, vs shGFP/shEGFP; for xenograft tumor formation, SMAD1 phosphomimic cells: SMAD1DVD cells with GDF6 knocked down; for xenograft tumor formation, empty vector-transfected cells: empty vector cells with GDF6 knocked down
Procedure: An art-accepted model to test for an agent's effects on melanoma is that of using immunocompromised (“nude”) mice which are then injected subcutaneously with melanoma cells, and then concomitant with injection of the cells, sometime after injection, and/or after tumor establishment, the test agent is appropriately administered (e.g., intravenously, peritoneally, orally, etc.). Control and treated animals are monitored in part for tumor growth, tumor stabilization, and tumor regression (see for example, Yang et al. 2010. Cancer Res., 70:5518-5527 and Bollag et al. 2010. Nature. 467:596-599).
All animal protocols were approved by the UMMS Institution Animal Care and Use Committee (A-2016, A-2171). Mice were randomly allocated to individual experimental groups. No blinding was done as animal groups were identified by tagging and cage labeling. Animals were excluded, according to pre-established criteria, if the tumor volume reached >1,000 mm^3; if tumor size or location affected the mobility or general health of animal, the animal was euthanized and excluded from the experiment or the complete experiment was terminated. A375 cells stably expressing an EGFP or GDF6 or SMAD1 shRNA and/or empty vector or GDF6-expressing vector or SMAD1DVD-overexpressing vector were subcutaneously injected into the flanks of 6-8-week-old BALB/c nu/nu female mice (Taconic Farms) to produce orthotopic primary tumor. Primary tumor growth was monitored every 3 days with calipers, and the tumor volume was calculated as described previously (C. Gazin, N. Wajapeyee, S. Gobeil, C. M. Virbasius, M. R. Green, An elaborate pathway required for Ras-mediated epigenetic silencing. Nature 449, 1073-1077 (2007)). For GDF6 knockdown, SMAD1 knockdown and epistasis experiments, 1×10^7 live cells were injected. For GDF6 overexpression experiments, 1×10^6 live cells were injected. For GDF6 overexpression and GDF6 knockdowns, a representative of two independent experiments (n=3 animals per experiment) is shown. For DMH1 drug experiments, 1×10^6 live A375 cells were subcutaneously injected in the flanks of BALB/c nu/nu female mice. Beginning on the day cells were injected, mice were injected intraperitoneally with vehicle 12.5% 2-hydroxypropyl-β-cyclodextrin or 25 mg/kg DMH1 in vehicle every other day. The growth of the tumor was monitored as described above. This experiment was repeated twice and the weighted average of both experiments (n=8 total) is represented.

A375 melanoma cells [2] = assay: Clonogenic growth (colony formation) assay; type: cell-based, human; settings: for colonies in clonogenic growth assay after shRNA treatment: A375 cells, crystal violet staining; for colonies in clonogenic growth assay after shRNA treatment / colonies in clonogenic growth assay, empty vector-transfected cells: vs shGFP; for colonies in clonogenic growth assay, cells expressing SMAD1 phosphomimic (SMAD1DVD): SMAD1DVD cells treated with shRNA; for colonies in clonogenic growth assay, empty vector-transfected cells: empty vector cells treated with shRNA
Procedure: For growth curves 50,000 live cells were seeded per well in a 6-well tissue culture plate on day 0. The numbers of live cells were calculated every day using an automated cell counter (Nexcelom Bioscience Cellometer Auto T4) following standard procedures. All assays were performed with technical replicates. For clonogenic assays, 3,000 live cells were seeded in a 10 cm tissue culture plate. […] ImageJ was used to quantify the number of colonies. In assays with DMH1 treatment, control or DMH1-containing media was replaced every other day. For soft agar assays a 0.5% bottom layer (1:1 with 1% agar and 2X DMEM with 20% FBS) and a 0.3% top layer (1:1 with 0.6% agar and 2× DMEM with 20% FBS) were used. 3,000 live cells per well of a 6-well tissue culture plate were added in the top layer. Media was added initially then replaced every 3 days. After 3 weeks, colonies were stained with nitroblue tetrazolium chloride overnight at 37° C. Once stained, individual wells were photographed, and ImageJ was used to count the number of colonies. All these assays were done in triplicate, and experiments were repeated at least twice. A representative image of each has been shown.

GDF6 = assay: Western blot of GDF6 protein after shRNA knockdown; type: cell-based, human; settings: melanoma cells, vs shGFP control
Procedure: Lentiviral infections were performed as described previously (C. J. Ceol et al., The histone methyltransferase SETDB 1 is recurrently amplified in melanoma and accelerates its onset. (Nature 471, 513-517 (2011)). For stable gene knockdowns, we used pLKO-1 lentiviral vectors to deliver short hairpin sequences (shRNAs) (obtained from the RNAi Consortium (TRC)/Broad Institute through the UMMS RNAi core facility) specific for GDF6 (GDF6.1: TRCN0000141818, target sequence: […] (SEQ ID NO:10); GDF6.2: TRCN0000140097, target sequence: […] (SEQ ID NO:11)) or SMAD1 (SMAD1.1: TRCN0000021781, target sequence: […] (SEQ ID NO:12); SMAD1.2: TRCN0000021782, target sequence: […] (SEQ ID NO:13)) or EGFP (TRCN0000072181, target sequence: […] (SEQ ID NO:14)). Virus was made using a second generation lentiviral packaging system in HEK293T cells and titrated using a p24 ELISA kit (Clontech). Cells were infected with virus at a multiplicity of infection of 2.5 with 8 μg/ml polybrene followed by puromycin selection (2 μm/ml) for 2 days in appropriate media. For overexpression, we used Gateway cloning (Life Technologies) to insert the GDF6 ORF (GE life sciences) or SMAD1DVD ORF (provided by Takenobu Katagiri) into the pLenti CMV Hygro DEST (w117-1) vector (provided by Paul Kaufman). […]

A375 melanoma cells [3] = assay: Apoptosis markers: Annexin5 staining and Caspase 3/7 cleavage; type: cell-based, human; settings: vs shGFP
Procedure: A375 melanoma cells after knockdown of GDF6 or SMAD1 or EGFP were stained for Annexin V and 7-AAD (BD Pharmingen PR Annexin V Apoptosis Detection kit) as per manufacturer's instructions, followed by flow cytometry using a FACSCalibur instrument (BD Biosciences). Caspase3/7 activity was measured using the Caspase-Glo 3/7 assay (Promega) as per manufacturer's instructions.

SMAD1 = assay: Western blot of SMAD1 protein after shRNA knockdown; type: cell-based, human; settings: melanoma cells, vs shGFP control
Procedure: Lentiviral infections were performed as described previously (C. J. Ceol et al., The histone methyltransferase SETDB 1 is recurrently amplified in melanoma and accelerates its onset. (Nature 471, 513-517 (2011)). For stable gene knockdowns, we used pLKO-1 lentiviral vectors to deliver short hairpin sequences (shRNAs) (obtained from the RNAi Consortium (TRC)/Broad Institute through the UMMS RNAi core facility) specific for GDF6 (GDF6.1: TRCN0000141818, target sequence: […] (SEQ ID NO:10); GDF6.2: TRCN0000140097, target sequence: […] (SEQ ID NO:11)) or SMAD1 (SMAD1.1: TRCN0000021781, target sequence: […] (SEQ ID NO:12); SMAD1.2: TRCN0000021782, target sequence: […] (SEQ ID NO:13)) or EGFP (TRCN0000072181, target sequence: […] (SEQ ID NO:14)). Virus was made using a second generation lentiviral packaging system in HEK293T cells and titrated using a p24 ELISA kit (Clontech). Cells were infected with virus at a multiplicity of infection of 2.5 with 8 μg/ml polybrene followed by puromycin selection (2 μm/ml) for 2 days in appropriate media. For overexpression, we used Gateway cloning (Life Technologies) to insert the GDF6 ORF (GE life sciences) or SMAD1DVD ORF (provided by Takenobu Katagiri) into the pLenti CMV Hygro DEST (w117-1) vector (provided by Paul Kaufman). Infection and monitoring was performed as described (C. J. Ceol et al., The histone methyltransferase SETDB 1 is recurrently amplified in melanoma and accelerates its onset. (Nature 471, 513-517 (2011)), except that selection was done with 300 ug/ml hygromycin for 10 days.
Protein extracts were prepared as previously described (S. D. Epstein L B, Hunte-McDonough B, harris C A, Cytokines: A pratical approach (Balkwill F R., ed). 81-93 (1991)). Extracts were separated on 12% SDS-PAGE gels. Blots were probed with primary antibodies (GDF6 (Sigma PRS4691; 1:1000), phospho-SMAD1/5/8 (Cell Signaling 13820; 1:1000), SMAD1 (Cell Signaling 9743; 1:500), Total SMAD1/5/8 (Santa Cruz sc-6031-R; 1:1000), FLAG (Sigma F3165, 1:2000), GAPDH (Abcam 8245; 1:2000)) overnight at 4° C., washed five times in TBS plus 0.1% Tween (TBST) and then incubated with the appropriate HRP-conjugated secondary antibody (Jackson Labs) for 1 hour at room temperature. Membranes were washed five times in TBST and visualized on autoradiography film after incubating with ECL reagent (Supersignal West Pico or Supersignal West Femto; Thermo Scientific).

MeWo melanoma cells = assay: Rescue of GDF6-knockdown melanoma cells by recombinant GDF6 in culture media; type: cell-based, human; settings: cells treated with shRNAs targeting GDF6
Source text: To determine if secreted GDF6 can facilitate the growth of melanoma cells, we knocked down GDF6 using shRNAs and then treated these knockdown cells with recombinant GDF6 protein (FIG. 10).

Molecule | tumor formation (tumor volume) of shRNA-treated cells xenotransplanted into mice (A375 melanoma cells [1]) | xenograft tumor formation, SMAD1 phosphomimic cells (A375 melanoma cells [1]) | xenograft tumor formation, empty vector-transfected cells (A375 melanoma cells [1]) | colonies in clonogenic growth assay after shRNA treatment (A375 melanoma cells [2]) | colonies in clonogenic growth assay, cells expressing SMAD1 phosphomimic (SMAD1DVD) (A375 melanoma cells [2]) | colonies in clonogenic growth assay, empty vector-transfected cells (A375 melanoma cells [2]) | GDF6 protein expression after shRNA treatment (GDF6) | apoptosis (Annexin5 staining, Caspase 3/7 cleavage) (A375 melanoma cells [3]) | SMAD1 protein expression after shRNA treatment (SMAD1) | SMAD1 protein expression after shRNA treatment (SMAD1; listed as shSMAD1#1) | SMAD1 protein expression after shRNA treatment (SMAD1; listed as shSMAD1#2) | proliferation/survival of GDF6-knockdown melanoma cells with recombinant GDF6 added to media (MeWo melanoma cells) | proliferation/survival of GDF6-knockdown melanoma cells with recombinant GDF6 added to media (MeWo melanoma cells; listed as recombinant GDF6)
shGDF6#1: shRNA targeting GDF6 (SEQ ID NO:1); GDF6.1 TRCN0000141818 targets SEQ ID NO:10 (GCCAAGTGTTACATTGAGCTT; the letters are possibly those of the target site; listed as Homo sapiens) | tumors intermediate between the control-treated (shEGFP) cells and the shGDF6#2-treated cells; also recorded: tumor volumes in xenografts decrease with the degree of GDF6 knockdown | tumor formation accelerated after day 15 | only small tumors formed | far fewer colonies | partially restored | few colonies formed | partially inhibited GDF6 protein expression; also recorded: knockdown of GDF6 protein; also recorded: diminishes expression of GDF6 protein | elevated apoptosis relative to control cells |  |  |  |  | 
shGDF6#2: shRNA targeting GDF6 (SEQ ID NO:2); GDF6.2 TRCN0000140097 targets SEQ ID NO:11 (GTGTCCATGCTCTCAGACAAA; the letters are possibly those of the target site; listed as Homo sapiens) | very little tumor formation; also recorded: formed tumors more slowly than control cells; also recorded: tumor volumes in xenografts decrease with the degree of GDF6 knockdown | tumor formation accelerated after day 15 | only small tumors formed | far fewer colonies | partially restored | few colonies formed | more effective than shGDF6#1; also recorded: knockdown of GDF6 protein; also recorded: diminishes expression of GDF6 protein | elevated apoptosis relative to control cells |  |  |  |  | 
shSMAD1-1: shRNA targeting SMAD1 (SEQ ID NO:4); SMAD1.1 TRCN0000021781 targets SEQ ID NO:12 (CGGTTGCTTATGAGGAACCAA; the letters are possibly those of the target site; listed as Homo sapiens) | formed only very small tumors; also recorded: tumor volumes in xenografts decrease |  |  | far fewer colonies |  |  |  | elevated apoptosis relative to control cells | knockdown of SMAD1 protein | significantly decreased; also recorded: decreases expression of SMAD1 protein |  |  | 
shSMAD1-2: shRNA targeting SMAD1 (SEQ ID NO:5); SMAD1.2 TRCN0000021782 targets SEQ ID NO:13 (GCCGATGGACACAAACATGAT; the letters are possibly those of the target site; listed as Homo sapiens) |  |  |  | far fewer colonies |  |  |  | elevated apoptosis relative to control cells | knockdown of SMAD1 protein |  | significantly decreased; also recorded: decreases expression of SMAD1 protein |  | 
recombinant GDF6 protein: recombinant GDF6 protein added to culture media (protein, UniProt Q6KF10 336-455, looked up) Growth/differentiation factor …: TAFASRHGKRHGKKSRLRCSKKPLHVNFKELGWDDWIIAPLEYEAYHCEGVCDFPLRSHLEPTNHAIIQTLMNSMDPGSTPPSCCVPTKLTPISILYIDAGNNVVYKQYEDMVVESCGCR |  |  |  |  |  |  |  |  |  |  |  | rescued the melanoma cells from undergoing GDF6 shRNA-induced apoptosis; also recorded: proliferation of GDF6-knockdown cells was restored | able to sustain their proliferation

— patent US20160279207A1, “TARGETING GDF6 AND BMP SIGNALING FOR ANTI-MELANOMA THERAPY” (University of Massachusetts, priority 2015, published 2016)
